Source: patent US8038984B2, “Membrane-permeant peptide complexes for treatment of sepsis” (Washington University, priority 1998, dated 2011)
Numbered stars: 1 amine (or outer) side, 2 acyl side, 3 side chain; on linkers, the order of the positions; unused ones are H or OH. Square brackets hold non-standard residues; d marks the D form. Ends that are not written are not given here. εLys = N[C@@H](CCCCN[*:1])C(=O)[*:2]; D‑k∗gc = not defined here; K∗GC = not defined here; Ahx = NCCCCCC(=O)O

Assays:
Format in all cases: cell-based
[1] = tested on: human Jurkat leukemia cells; assay: Cell accumulation (uptake) of Tc-99m-Tat-peptide complexes in Jurkat cells; conditions: for Jurkat Cell Uptake: Table 2, radiolabeled (99mTc) peptides, net cell uptake; for 20 min Uptake: [99mTc] complexes, 37° C.; for U/W Ratio: uptake/washout ratio; for effect of inhibitor on net cell uptake of the Tat-peptide metal complex: colchicine 100 ng/ml, taxol 1 μM, nocodozole 5 μg/ml, cytochalasin D 1 μM, brefeldin A 2.5 μg/ml, wortmannin 100 nM
Method: Control solution for cell uptake experiments was a modified Earle's balanced salt solution (MEBSS) containing (mM): 145 Na^+, 5.4 K^+, 1.2 Ca^2+, 0.8 Mg^2+, 152 Cl^−, 0.8 H2PO4^−, 0.8 SO4^2−, 5.6 dextrose, 4.0 HEPES, and 1% bovine calf serum (vol/vol), pH 7.4±0.05. A 130 mM K^+/20 mM Cl^− solution was made by equimolar substitution of potassium methanesulfonate for NaCl as described by Piwnica-Worms et al. (J. Gen. Physiol., 81:731-748, 1983).
(§1) Characterization of accumulation of Tc-99m-peptide complex was also performed for nonadherent cell lines such as human Jurkat leukemia cells with minor modifications of methods described in the literature (Bosch et al., Leukemia, 11: 1131-1137, 1997). Transport experiments were performed in siliconized microfuge tubes and initiated by addition of 732.5 μl of cells at 2-3×10^6 cells/ml to 10 μl of buffer containing Tc-99m-peptide complex and 7.5 μl of vehicle alone or of any added drug in vehicle at 100-fold the desired concentration. The tubes were incubated in a 37° C. water bath with occasional mixing. The reaction was terminated by centrifuging 250 μl aliquots from the reaction for 10 seconds through 800 μl of a 75:25 mixture of silicon oil, density=1.050 (Aldrich) and mineral oil, density=0.875 (Acros). An aliquot of the aqueous phase was obtained to normalize extracellular concentration of the complex to cell-associated activity, then the oil and aqueous phases were aspirated and the cell pellet extracted in 0.5 ml of 1% SDS, 10 mM sodium borate. For tracer washout experiments, cells were first incubated to plateau uptake (10 min) in loading buffer (37° C.), collected by rapid centrifugation and the pellet resuspended in 50 ml MEBSS (4° C.) to clear extracellular tracer. Following another rapid spin, the cell pellet was resuspended in isotope-free MEBSS (37° C.) and the experiment terminated as above after various times in warm washout buffer. Radioactivity of the cell pellet, buffers and stocks were determined on a gamma counter (Cobra II, 130-165 keV window) and cell protein was determined by the BCA assay (Pierce). Transport data are reported as fmol Tc-complex (mg protein)^−1 (nM0)^− as previously described, with (nM0)^−1 representing total concentration of peptide conjugate in the extracellular buffer (Piwnica-Worms et al., Circulation, 82: 1826-1838, 1990).
Kinetic experiments of [^99mTc]D-Tat-peptide complexes were performed in Jurkat leukemia cells suspended in MEBSS with minor modification of the methods described in Example 6. Transport experiments were performed in siliconized microfuge tubes and initiated by addition of 732.5 μl of cells at 2-3×10^6 cells/ml to 10 μl of MEBSS containing [^99mTc]D-Tat-peptide complex and 7.5 μl of vehicle alone or of any added drug in vehicle at 100 fold the desired concentration. Unless stated otherwise, [^99mTc]D-Tat-peptide complex was added to MEBSS accompanied by a molar excess of unlabeled D-Tat-peptide as obtained directly from the labeling procedure. The final total peptide concentration was 7 nM to 8 μM (1-2 μCi/ml). The tube were incubated at 37° C. and the reaction terminated as previously described. For peptide washout experiments, cells were first incubated to plateau uptake (20 minutes) in MEBSS loading buffer at 37° C., collected by rapid centrifugation and the pellet resuspended in 50 ml of isotope-free MEBSS at 4° C. to clear extracellular tracer. Following another rapid spin, the cell pellet was resuspended in isotope-free MEBSS at 37° C. for various times and the reaction terminated as described previously. Protein assays and determination of gamma activity were as described in Example 6. Absolute concentration of total [Tc]Tat-peptide complex in solution was determined from the specific activity of Tc, based on equations of Mo/Tc generator equilibrium (Lamson et al., J. Nucl. Med., 16:639-641, 1975). […]

[2] = tested on: human Jurkat leukemia cells; assay: Washout of Tc-99m-Tat-peptide complexes from preloaded Jurkat cells; conditions: for 30 min Washout: residual activity remaining within the cell 30 minutes after a wash in isotope-free buffer
Method: as §1
Kinetic experiments of [^99mTc]D-Tat-peptide complexes were performed in Jurkat leukemia cells suspended in MEBSS with minor modification of the methods described in Example 6. Transport experiments were performed in siliconized microfuge tubes and initiated by addition of 732.5 μl of cells at 2-3×10^6 cells/ml to 10 μl of MEBSS containing [^99mTc]D-Tat-peptide complex and 7.5 μl of vehicle alone or of any added drug in vehicle at 100 fold the desired concentration. Unless stated otherwise, [^99mTc]D-Tat-peptide complex was added to MEBSS accompanied by a molar excess of unlabeled D-Tat-peptide as obtained directly from the labeling procedure. The final total peptide concentration was 7 nM to 8 μM (1-2 μCi/ml). The tube were incubated at 37° C. and the reaction terminated as previously described. For peptide washout experiments, cells were first incubated to plateau uptake (20 minutes) in MEBSS loading buffer at 37° C., collected by rapid centrifugation and the pellet resuspended in 50 ml of isotope-free MEBSS at 4° C. to clear extracellular tracer. Following another rapid spin, the cell pellet was resuspended in isotope-free MEBSS at 37° C. for various times and the reaction terminated as described previously. Protein assays and determination of gamma activity were as described in Example 6. Absolute concentration of total [Tc]Tat-peptide complex in solution was determined from the specific activity of Tc, based on equations of Mo/Tc generator equilibrium (Lamson et al., J. Nucl. Med., 16:639-641, 1975). Transport data are reported as pmol of peptidei (mg protein)^−1 (μM0)^−1, wherein peptidei represents total peptide conjugate within the cells and (nM0)^−1 represents concentration of total peptide conjugate in the extracellular buffer.

human lymphocytes = assay: E. coli bacterial-induced lymphocyte apoptosis, staining for active caspase 3; conditions: human lymphocytes treated with live E. coli for ~5 hours
Method: Thymocytes and splenocytes were obtained from CLP and sham-treated mice ˜20 hours postoperatively. The APO-BRDU™ kit (Phoenix Flow Systems, San Diego, Calif.) was employed for flow cytometric quantitation of TUNEL. Antibodies to active caspase 3 (Cell Signaling—Catalog #9664) were used in the flow cytometry and/or TUNEL assay.
Lymphocytes were harvested from peripheral blood obtained from 6 healthy volunteers using a ficol gradient separation technique. Approximately 1×10^6 lymphocytes were plated in individual transwell containers. E. coli bacteria (strain ATCC 25922), that had been grown overnight in trypticase soy broth were added to a separate compartment of the transwell chamber separated from direct contact with the lymphocytes by a 0.02 micron filter (25 μl of bacteria at 3×10^9 CFUs added to 1 ml volume.

12l (RKKRRQRRR; not fully specified; biotin; AHA-K*GC chelator, amide) [Conjugate 12l]
Jurkat Cell Uptake ([1]; Jurkat cells): 51.07 ± 11.78 pmol (mg protein)^−1 (μM0)^−1

Acetyl- GRKKRRQRRR-AHA- εKGC-amide [Conjugate 1]
20 min Uptake ([1]; Jurkat cells): 77.93 pmol (mg protein)^−1 (μM0)^−1 | U/W Ratio ([1]; Jurkat cells): 3.2 | 30 min Washout [2]: 24.26 pmol (mg protein)^−1 (μM0)^−1

COC[C@H]1OC(=O)c2coc3c2[C@@]1(C)C1=C(C3=O)[C@@H]2CCC(=O)[C@@]2(C)C[C@H]1OC(C)=O [wortmannin, reference compound]
effect of inhibitor on net cell uptake of the Tat-peptide metal complex ([1]; Jurkat cells, data not shown): no significant effect

1a (GRKKRRQRRR; acetyl; AHA-K*GC chelator, amide) [Conjugate 1a]
Jurkat Cell Uptake ([1]; Jurkat cells): 92.90 ± 21.17 pmol (mg protein)^−1 (μM0)^−1

2b (GRKKRRQRRR; acetyl; AHA-D-k*gc chelator, amide) [Conjugate 2b]
Jurkat Cell Uptake ([1]; Jurkat cells): 50.39 ± 25.73 pmol (mg protein)^−1 (μM0)^−1

acetyl-GRKKRRQRRR-GDEVDG-εKGC-amide (Ac-GRKKRRQRRRGDEVDG[εLys]GC-NH2; SMILES CC(=O)NCC(=O)N[C@@H](CCCNC(=N)N)C(=O)N[C@@H](CCCCN)C(=O)N[C@@H](CCCCN)C(=O)N[C@@H](CCCNC(=N)N)C(=O)N[C@@H](CCCNC(=N)N)C(=O)N[C@@H](CCC(N)=O)C(=O)N[C@@H](CCCNC(=N)N)C(=O)N[C@@H](CCCNC(=N)N)C(=O)N[C@@H](CCCNC(=N)N)C(=O)NCC(=O)N[C@@H](CC(=O)O)C(=O)N[C@@H](CCC(=O)O)C(=O)N[C@H](C(=O)N[C@@H](CC(=O)O)C(=O)NCC(=O)NCCCC[C@H](N)C(=O)NCC(=O)N[C@@H](CS)C(N)=O)C(C)C) [Example 8]
20 min Uptake ([1]; Jurkat cells): 317.92 pmol (mg protein)^−1 (μM0)^−1 | U/W Ratio ([1]; Jurkat cells): 6.2 | 30 min Washout [2]: 50.87 pmol (mg protein)^−1 (μM0)^−1

5e (Ac-RKKRRQRRR-{Ahx-D‑k∗gc-NH2}; reading uncertain) [Conjugate 5e]
Jurkat Cell Uptake ([1]; Jurkat cells): 48.81 ± 2.91 pmol (mg protein)^−1 (μM0)^−1

acetyl-GRKKRRORRR-AHA-εKGC-amide(Tc^v-99m) trifluoroacetate [Example 2]
net uptake under isoelectric conditions compared to control buffer ([1]; 130 mM K+/20 mM Cl− and 1 μg/ml valinomycin, data not shown): not decreased | net accumulation in ice-cold buffer ([1]; 4° C., Jurkat cells): only modestly inhibited | time to approach plateau accumulation ([1]; Jurkat cells): ≤ 2 min | time plateau (quasi-steady state) was maintained ([1]; Jurkat cells continuously exposed to the complex): at least 1 hour | Steady-state value of accumulation ([1]; Jurkat cells, n=4): 116±3 fmol (mg protein)^−1 (nM0)^−1 | 20 min Uptake ([1]; Jurkat cells): 61.73 pmol (mg protein)^−1 (μM0)^−1 | in/out ratio ([1]; given a typical cell water space of 4 μl (mg protein)^−1): ~30 | extracellular concentration of half-maximal accumulation ([1]; plateau accumulation after 10 minutes, 7 nM to 8 μM, curve fitting): ~3 µM | U/W Ratio ([1]; Jurkat cells): 5.6 | cell accumulation complete ([1]; within 2 minutes, extracellular concentration of peptide 950 nM, Jurkat cells): 90% | 30 min Washout [2]: 10.99 pmol (mg protein)^−1 (μM0)^−1 | residual level of peptide remaining in cells ([2]; slowly exchanging or retaining compartment after washout): < 10 % of peak activity | washout complete ([2]; within 20 minutes, preloaded Jurkat cells): ~90%

C=C1[C@@H](C)[C@H]2[C@H](Cc3ccccc3)NC(=O)[C@]23[C@H](OC(C)=O)/C=C/[C@@](C)(O)C(=O)[C@@H](C)C/C=C/[C@H]3[C@@H]1O [cytochalasin D, reference compound]
effect of inhibitor on net cell uptake of the Tat-peptide metal complex ([1]; Jurkat cells, data not shown): no significant effect

8h (RKKRRQRRR-{Ahx-D‑k∗gc-NH2}; reading uncertain) [Conjugate 8h]
Jurkat Cell Uptake ([1]; Jurkat cells): 64.35 ± 1.63 pmol (mg protein)^−1 (μM0)^−1

28 (Ac-RRRRRRR-{Ahx-D‑k∗gc-NH2}; reading uncertain) [Conjugate 28]
Jurkat Cell Uptake ([1]; Jurkat cells): 34.73 ± 6.99 pmol (mg protein)^−1 (μM0)^−1

COc1cc2c(c(OC)c1OC)-c1ccc(OC)c(=O)cc1[C@@H](NC(C)=O)CC2 [Colchicine, reference compound]
effect of inhibitor on net cell uptake of the Tat-peptide metal complex ([1]; Jurkat cells, data not shown): no significant effect

COC(=O)Nc1nc2ccc(C(=O)c3cccs3)cc2n1C [nocodozole, reference compound]
effect of inhibitor on net cell uptake of the Tat-peptide metal complex ([1]; Jurkat cells, data not shown): no significant effect

4d (Ac-RKKRRQRRR-{Ahx-K∗GC-NH2}; reading uncertain) [Conjugate 4d]
Jurkat Cell Uptake ([1]; Jurkat cells): 90.75 ± 41.04 pmol (mg protein)^−1 (μM0)^−1

Bcl-xL: free unconjugated Bcl-xL, anti-apoptotic Bcl-2 family protein
CD3 T cell apoptosis by staining for active caspase 3 (human lymphocytes): a similar decrease was not seen

30 (Ac-RRRRRRRR-{Ahx-D‑k∗gc-NH2}; reading uncertain) [Conjugate 30]
Jurkat Cell Uptake ([1]; Jurkat cells): 59.02 ± 5.52 pmol (mg protein)^−1 (μM0)^−1

C[C@H]1CCC/C=C/[C@@H]2C[C@H](O)C[C@H]2[C@H](O)/C=C/C(=O)O1 [brefeldin A, reference compound]
effect of inhibitor on net cell uptake of the Tat-peptide metal complex ([1]; Jurkat cells, data not shown): no significant effect

10j (GRKKRRQRRR; AHA linker, D-k*gc chelator, amide) [Conjugate 10j]
Jurkat Cell Uptake ([1]; Jurkat cells): 106.96 ± 1.55 pmol (mg protein)^−1 (μM0)^−1

CC(=O)O[C@H]1C(=O)[C@@]2(C)[C@H]([C@H](OC(=O)c3ccccc3)[C@]3(O)C[C@H](OC(=O)[C@H](O)[C@@H](NC(=O)c4ccccc4)c4ccccc4)C(C)=C1C3(C)C)[C@]1(OC(C)=O)CO[C@@H]1C[C@@H]2O [taxol, reference compound]
effect of inhibitor on net cell uptake of the Tat-peptide metal complex ([1]; Jurkat cells, data not shown): no significant effect

32 (Ac-RRRRRRRRR-{Ahx-D‑k∗gc-NH2}; reading uncertain) [Conjugate 32]
Jurkat Cell Uptake ([1]; Jurkat cells): 129.11 ± 69.01 pmol (mg protein)^−1 (μM0)^−1
